Results on 1 molecule are retold here after publication PMC12624743 (ACS Infectious Diseases, 2025).

Assay [1] concerns N. gonorrhoeae FA1090E (GyrA^WT/ParC^WT, efflux mutant). Kind of assay: MIC by agar dilution, WT/WT efflux-mutant parental strain. It counts as cell-based. The conditions noted are these: Neisseria gonorrhoeae, 48 h. As for the experimental part:
Mutations in these efflux genes can result in increased efflux to multiple antibiotics. […] Parental and isogenic mutant strains generated that carried the efflux mutations mtrR-79 and norM ΔT T6 were designated as FA1090E (E for efflux positive). Only the additional GyrA and ParC genotypes are described in Table and in the text. The mutant that additionally expressed ParC^D86N was named FA1090E-2.
(§1) Minimum inhibitory concentration (MIC) of test compounds was determined by an agar dilution method, the reference testing method for N. gonorrhoeae according to the standards of the Clinical and Laboratory Standards Institute and the CDC.

In assay [2] the test system is N. gonorrhoeae FA1090E-3 (GyrA^A92T/ParC^D86N). Briefly: MIC by agar dilution, GyrA^A92T/ParC^D86N strain. The class given is cell-based, Neisseria gonorrhoeae. As for the experimental part:
This strain was designated FA1090E-3 (GyrA^A92T/ParC^D86N).
as §1

The target in assay [3] is T1, N. gonorrhoeae gyrase GyrA^D95G (Neisseria gonorrhoeae, UniProt P48371, D95G).
T1 construct: His; made in house
Briefly: DNA cleavage assay, GyrA^D95G gyrase. It counts as biochemical. How it is done: (§2) Some experiments replaced MgCl2 with an equivalent concentration of CaCl2 (10 mM), or 1.5 mM ATP was added to assay mixtures.
(§3) Reactions were incubated at 37 °C for 30 min with WT and mutant (GyrA^D90N, GyrA^A92T, GyrA^S91F, GyrA^D95G, or GyrA^S91F/D95G) N. gonorrhoeae gyrase, 10 min with WT N. gonorrhoeae topoisomerase IV, and 20 min with mutant (ParC^D86N, ParC^S88P, ParC^S87N, or ParC^E91G) N. gonorrhoeae topoisomerase IV. Enzyme-DNA cleavage complexes were trapped by adding 2 μL of 5% SDS followed by 2 μL of 250 mM EDTA (pH 8.0). Proteinase K was added (2 μL of a 0.8 mg/mL solution), and reaction mixtures were incubated at 45 °C for 30 min to digest the enzyme. Samples were mixed with 2 μL of loading buffer and heated at 45 °C for 2 min prior to electrophoresis in 1% agarose gels in 40 mM Tris-acetate (pH 8.3), and 2 mM EDTA containing 0.5 μg/mL ethidium bromide. DNA bands were visualized by midrange ultraviolet light and quantified using an Alpha Innotech digital imaging system (Protein Simple). Single-stranded DNA cleavage was monitored by the conversion of negatively supercoiled to nicked plasmid molecules.

For assay [4], the system named is N. gonorrhoeae topoisomerase IV ParC^E91G. Kind of assay: biochemical. Particulars: ParC E91G vs WT. As for the experimental part: as §2, §3
In assay [5] the target is N. gonorrhoeae topoisomerase IV ParC^S87N (Neisseria gonorrhoeae, UniProt P48374, S87N). Briefly: biochemical. How it is done:
as §2, §3

In assay [6] the test system is N. gonorrhoeae topoisomerase IV ParC^S87N. Kind of assay: biochemical. Particulars: ParC S87N vs WT. How it is done:
as §2, §3

The target in assay [7] is T2, N. gonorrhoeae topoisomerase IV ParC^S88P (Neisseria gonorrhoeae, UniProt P48374, S88P).
T2 sequence (P48374 1-768 S88P): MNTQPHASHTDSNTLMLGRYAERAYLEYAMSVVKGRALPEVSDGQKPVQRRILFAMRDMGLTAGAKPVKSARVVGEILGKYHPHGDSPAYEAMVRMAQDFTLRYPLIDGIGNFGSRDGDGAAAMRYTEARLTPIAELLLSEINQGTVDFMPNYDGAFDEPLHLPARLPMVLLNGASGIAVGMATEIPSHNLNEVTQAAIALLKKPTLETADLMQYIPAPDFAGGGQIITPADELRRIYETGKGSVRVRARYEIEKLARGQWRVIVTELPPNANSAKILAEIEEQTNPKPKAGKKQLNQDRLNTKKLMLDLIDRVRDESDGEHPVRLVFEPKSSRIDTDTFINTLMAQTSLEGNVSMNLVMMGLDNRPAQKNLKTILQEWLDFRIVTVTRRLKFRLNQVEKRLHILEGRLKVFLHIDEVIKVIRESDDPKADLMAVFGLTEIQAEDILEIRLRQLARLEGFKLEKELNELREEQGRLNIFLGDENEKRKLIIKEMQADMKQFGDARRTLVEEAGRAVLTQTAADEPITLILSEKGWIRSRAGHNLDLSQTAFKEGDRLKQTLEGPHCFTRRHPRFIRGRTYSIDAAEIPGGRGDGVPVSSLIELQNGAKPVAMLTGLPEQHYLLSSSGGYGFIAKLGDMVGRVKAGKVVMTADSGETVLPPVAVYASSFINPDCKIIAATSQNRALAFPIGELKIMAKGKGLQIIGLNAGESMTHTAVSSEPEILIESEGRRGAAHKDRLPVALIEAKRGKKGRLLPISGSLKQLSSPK
Kind of assay: biochemical. As for the experimental part:
as §2, §3

Assay [8] deals with N. gonorrhoeae topoisomerase IV ParC^S88P. Briefly: biochemical. Particulars: ParC S88P vs WT topoisomerase IV. How it is done:
as §2, §3

In assay [9] the target is T3, WT N. gonorrhoeae topoisomerase IV (Neisseria gonorrhoeae, UniProt P48374).
T3 sequence (P48374 1-768): T2 sequence (P48374 1-768 S88P) with P88S
Kind of assay: biochemical. As for the experimental part: as §2, §3

Structures are written as SMILES. Numbering of substitutions follows the chain as printed. In brackets after ≈: the same amount, converted by molar mass.

Turning to `O=c1ccc2ncc(=O)n3c2n1C[C@H]3CN1CCC(NCc2cc3c(cn2)OCCC3)CC1` [gepotidacin], the values for the MIC in assay [1] and in assay [2] (Neisseria gonorrhoeae) were 0.5 µg/mL (≈ 1.11 µM) and 8 µg/mL (≈ 17.8 µM), respectively. Moreover, in assay [2] (strain FA1090E-3 vs FA1090E), the “fold-change in MIC from WT/WT parental strain” value is 16 fold. Also, the “Adj-Max Cleavage, single-stranded DNA breaks” value is listed as 17.9% in [3] and roughly 42.8% in [9] (WT topoisomerase IV, adjusted for baseline cleavage). For the same molecule, the EC50 in assay [3] (GyrA D95G gyrase, read-out: CC50, single-stranded DNA cleavage) stood at 1300 nM; in assay [5] it was 600 nM; in assay [7] it was 200 nM; in assay [9], 600 ± 200 nM. Moreover, the “single-stranded DNA cleavage compared with WT gyrase” value in assay [3] (GyrA D95G vs WT) is reported as “nearly indistinguishable”. Moreover, the “fold decrease of Adj-Max Cleavage vs WT” value was roughly 3.2 fold in [4] and roughly 4.2 fold in assay [6]. In addition, in assay [8], the “more single-stranded DNA cleavage with mutant enzyme compared to WT” value is listed as roughly 40%. Besides, in assay [9] (WT topoisomerase IV, 1.5 mM ATP), the “effect of ATP on potency and maximal DNA cleavage” value was “little effect”. Also, the “effect on double-stranded DNA breaks” value in [9] (WT topoisomerase IV, Mg2+ replaced with Ca2+) is “clear suppression”. In addition, the “additional enhancement of double-stranded DNA breaks above baseline” value in assay [9] (WT topoisomerase IV, up to 200 μM gepotidacin, up to 180 min) was “not observed”.

One may read the MIC as the lowest concentration found to suppress growth.
